Measured values taken from BindingDB's records for doi:10.1038/sj.bjp.0702751 (Cerebrus, 1999).

What was measured:
[1] = biological target: 5-hydroxytryptamine receptor 2B (Homo sapiens, UniProt P41595)
[2] = biological target: T1, 5-hydroxytryptamine receptor 2C (Homo sapiens, UniProt P28335)
T1 sequence (P28335 whole entry): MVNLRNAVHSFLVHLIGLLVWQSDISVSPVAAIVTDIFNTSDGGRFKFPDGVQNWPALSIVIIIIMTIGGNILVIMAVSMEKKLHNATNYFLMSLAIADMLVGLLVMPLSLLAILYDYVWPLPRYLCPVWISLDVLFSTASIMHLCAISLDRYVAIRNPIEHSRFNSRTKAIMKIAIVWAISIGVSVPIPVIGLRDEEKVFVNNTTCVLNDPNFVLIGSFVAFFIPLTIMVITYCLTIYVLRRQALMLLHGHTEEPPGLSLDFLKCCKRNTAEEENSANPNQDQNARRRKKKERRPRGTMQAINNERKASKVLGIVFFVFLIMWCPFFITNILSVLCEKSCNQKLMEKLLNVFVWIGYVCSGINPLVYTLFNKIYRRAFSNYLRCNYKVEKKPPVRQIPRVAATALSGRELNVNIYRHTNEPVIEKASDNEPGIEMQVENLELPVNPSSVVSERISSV

Sequence of 5-hydroxytryptamine receptor 2B (P41595 whole entry): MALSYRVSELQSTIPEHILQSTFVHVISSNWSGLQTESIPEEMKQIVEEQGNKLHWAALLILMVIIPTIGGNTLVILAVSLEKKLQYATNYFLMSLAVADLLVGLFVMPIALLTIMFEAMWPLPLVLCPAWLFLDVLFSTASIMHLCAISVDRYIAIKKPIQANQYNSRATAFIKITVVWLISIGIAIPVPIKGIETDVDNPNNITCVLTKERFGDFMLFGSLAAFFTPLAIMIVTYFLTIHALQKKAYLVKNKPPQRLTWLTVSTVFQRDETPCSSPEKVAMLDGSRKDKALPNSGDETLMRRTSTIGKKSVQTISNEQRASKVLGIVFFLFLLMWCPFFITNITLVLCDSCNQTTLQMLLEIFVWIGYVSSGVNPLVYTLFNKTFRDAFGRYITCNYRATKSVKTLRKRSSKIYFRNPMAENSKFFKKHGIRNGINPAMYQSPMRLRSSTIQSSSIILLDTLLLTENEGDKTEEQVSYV

Compound `CCCN(CCC)C1CCc2cccc(O)c2C1` (configuration not stated) has a Ki [1] of 891 nM.

For `Cc1[nH]c2ccc(O)cc2c1CCN`, the Ki [1] was 170 nM and the Ki [2] was 1200 nM.

For `NCCc1c[nH]c2ccccc12` [1H-indole-3-ethanamine], the Ki [1] was 29.5 nM and the Ki [2] was 45.7 nM.

With `COc1cc(CC(C)N)c(OC)cc1Br` (stereo not drawn) [2-(4-Bromo-2,5-dimethoxy-phenyl)-1-methyl-ethylamine((-)-DOB)] the Ki [1] was 2.88 nM.

`FC(F)(F)c1ccc(N2CCNCC2)nc1Cl` [2-Chloro-3-(trifluoromethyl)-6-(1-piperazinyl)pyridine] gave a Ki [1] of 525 nM and a Ki [2] of 97.7 nM.

`c1ccc2nc(N3CCNCC3)ccc2c1` [2-Piperazin-1-yl-quinoline (Quipazine)] was tested, and the Ki [1] was 178 nM and the Ki [2] was 339 nM.

With `Cn1cc(CCN)c2cc(O)ccc21` [5-HT,omega-N-Me] the Ki [1] was 2 nM and the Ki [2] was 11.5 nM.

`Clc1cncc(N2CCNCC2)n1` [L-630,571] was tested, and the Ki [1] was 295 nM and the Ki [2] was 214 nM.

For `CC(N)Cn1ccc2cc(F)c(Cl)cc21` (configuration not stated) [NSC_3045226], the Ki [1] was 0.89 nM and the Ki [2] was 32.4 nM.

For `CC(N)Cc1c[nH]c2ccc(OCc3cccs3)cc12` (configuration not stated) [NSC_5311036], the Ki [2] was 93.3 nM.

Work on `C[C@H](N)Cc1cccc(C(F)(F)F)c1` [Norfenfluramine (+)] yielded a Ki [1] of 8.71 nM and a Ki [2] of 170 nM.

Compound `COc1ccc2c(c1[C@@H]1CCNC1)CCC2` [ORG-37684] has a Ki [1] of 11 nM and a Ki [2] of 6.76 nM.

`CN1CCc2cc(Cl)c(O)cc2[C@@H](c2ccccc2)C1` [SCH 23390,R(+)] was tested, and the Ki [1] was 70.8 nM and the Ki [2] was 40.7 nM.

With `FC(F)(F)c1cccc(N2CCNCC2)c1` [TFMPP] the Ki [1] was 288 nM.

Compound `NCCc1c[nH]c2ccc(C(N)=O)cc12` [[3H]-5-carboxamidotryptamine] has a Ki [1] of 15.5 nM.

For `COc1cc(CC(C)N)c(OC)cc1I` (configuration not stated) [[125I]2,5-dimethoxy-4-iodoamphetamine], the Ki [1] was 1.41 nM and the Ki [2] was 7.94 nM.
